Paper PMC9655874, “Analysis of Volatile Secondary Metabolites in Ocimum basilicum Cell Suspensions: Inhibition, In Silico Molecular Docking, and an ADMET Analysis against Proteolytic Enzymes of Rhynchophorus ferrugineus” (Plants, 2022)
In brackets after ≈: the same amount, converted by molar mass.

What was measured:
[1] = target: trypsin proteinase of R. ferrugineus midgut; assay: Serine proteinase specific activity, trypsin (in vitro); conditions: 4th instar midgut homogenate
Method: (§4) We used a serine protease assay buffer and a modified version of the fast microplate method to analyze the serine proteinase’s specific activity in mixtures (150 µL) [26]. […] The sample (10 µL) was diluted using an assay buffer to 50 µL to determine the presence of trypsin proteinase, chymotrypsin proteinase, and elastase. Assay buffer was used to dilute stock substrates of BAρNA (100 mg/mL DMSO), both SAAPFρNA and SAAPLρNA (100 mg/mL DMF), to 1.0 mg/mL. To halt the reaction after 15 min of incubation at 37 °C, 50 µL of acetic acid (30%, v/v) was added. The intensity of the activity was measured using a 405 nm ELISA plate reader. A denaturation enzyme was used in place of an active enzyme in the experiment mixture. For three substrates (SAAPLρNA, BAρNA, and SAAPFρNA), activity levels of certain proteinases were assessed as OD mg^−1 protein min^−1.
(§5) An experiment that was set up free of potential inhibitors served as a control. An ELISA plate fast reader measured the enzymes’ absorption at various wavelengths. For each inhibitor, the control enzyme’s percentage activity was assessed for each enzyme. Four instars midgut larvae were treated with previous concentrations of extracts or compounds, assessed as previously mentioned, to measure the protease activity in vivo. Larvae were subjected to extract- and compound-treated leaf discs for 24 h.

[2] = system: total proteases of R. ferrugineus midgut; assay: Total protease activity in midgut of treated larvae (in vivo); conditions: larvae treated 24 h, midgut preparation
Method: (§6) The homogenate of R. ferrugineus 4th midgut instar larvae (lab strain) was assayed for total proteolytic enzyme activity using azocasein, as Darrag et al. [26], with modifications. Ten 4th midgut larval homogenates were carefully removed, incised, and then rinsed in a solution containing 0.9% NaCl before even being homogenized in a buffer (500 µL) containing 5 mM dithiothreitol (DTT), 0.1% (v/v) Triton X-100, and 50 mM N-2-hydroxyethyl piperazine-N′-2-ethane sulphonic acid (HEPS), and 8.0 pH. It was spun in a centrifuge (Sigma 3k30), and the remaining homogenates were from a preliminary phase for 30 min at 5000 rpm. Using the supernatants, the protein concentration and proteolytic enzyme activity were determined. […] Before each reaction experiment, 40-day-old methanolic extract of cell suspension, pure chemicals, and 10 μL of enzyme specimens were incubated for 10 min. The addition of the substrate initiated the reaction, which was allowed for 20 min in the case of leupeptin before being terminated 180 min later by adding 300 µL of cold tri-chloroacetic acid (TCA) (10%, v/v). Twenty minutes were spent centrifuging the mixture at 5000 rpm (Sigma 3k30). Overall, 10 µL of NaOH (10 N) was added to the supernatant, and the absorbance was measured using an ELISA plate reader at 450 nm to quantify the enzymes’ specific activity as OD450/mg protein/h.
as §5

[3] = system: elastase of R. ferrugineus midgut; assay: Elastase activity in midgut of treated larvae (in vivo); set-up: species or system Rhynchophorus ferrugineus; conditions: larvae treated 24 h, midgut preparation
R. ferrugineus adults = assay: whole plant or invertebrate; format: in vivo; conditions: Rhynchophorus ferrugineus, read-out: LC50 (µg/mL) 95% CF
Method: (§1) Cells were suspended in the methanolic extract at serially increasing concentrations for 40 days. To dilute the compounds, TritonX-100 (0.1%) was added to acetone after the chemicals were dissolved. Adults or larvae of R. ferrugineus were purchased. They were then cultured using long lengths of sugar cane stem. The extracts’ anti-larvae action was assessed by applying topically to larvae and keeping them at 4–5 °C for 5 min. Utilizing a manually controlled micro-applicator, each larva had extract injected into its dorsum in three separate 10 µL doses using a 50-ll micro-syringe from Hertfordshire, UK’s Burkard Manufacturing Co., Ltd. (MS-N50; Shizuoka, Japan’s Ito Corp.). Five larvae in a box with three replications were fed on portions of long sugarcane stem measuring 10 cm. […] The sugarcane stem’s ten-centimeter-long portions cut into equal longitudinal halves were used to measure the antifeedant activity against adults. Long sections of sugarcane stem with a surface area of approximately 32.2 cm^2 were dried in air at room temperature, assuming a dipping time of 10 s and an initial serial concentration of (10 mL). Each treated object remained in a plastic container. Each box included an additional pair (male and female). Each therapy was administered ten times. In total, 24-, 48-, 72-, and 96-h feeding observations were assessed.
(§2) Statistics and probit analysis were performed using SPSS 25.0, as mentioned by Finney. To sum up, all numerical predictions of toxicity variables and findings were presented as the mean ± SE. We regressed mortality and translated the resulting dosage to an LC50 value (µg/mL). […] Enzyme activity data were analyzed using an ANOVA. Means were separated using the SNK (Student–Newman–Keuls) test, and deviations at the p ˂ 0.05 level were considered noteworthy.

[4] = target: cysteine protease of R. ferrugineus midgut; assay: Cysteine proteinase activity (in vitro); format: biochemical, Rhynchophorus ferrugineus; conditions: 4th instar midgut homogenate
Method: (§3) Utilizing the substrate N-benzoyl-Phe-Val-Arg-p-nitroanilide hydrochloride and certain modifications, the cysteine proteinases of R. ferrugineus homogenate from the fourth midgut instar was tested for activity. Ten larvae of the fourth midgut were carefully taken out, dissected, and periodically washed with 0.9% (w/v) NaCl solution, assay buffer containing 50 mM HEPS, 5 mM DTT, and 0.1% Triton X-100 (v/v) (pH 8.0, 500 µL) was used to homogenize the samples. The homogenates were spun using a cooling Sigma 3k30 centrifuge for 30 min at 5000 rpm. […] Before introducing 100 µL of the substrate, 10 µL of the supernatant was incubated in assay buffer (60 µL, pH = 8) at 37 °C for 30 min. Enzyme samples in 10 µL were incubated for 10 min with iodoacetic acid before the addition of the substrate. […] The absorbance at 520 nm was measured after spinning the reaction for 6 min at 5000 rpm. The activity in the midgut was assayed at OD520.60 min^−1 mg^−1 of protein with an ELISA rapid reader.

[5] = system: cysteine protease of R. ferrugineus midgut; assay: Cysteine protease activity in midgut of treated larvae (in vivo); set-up: species or system Rhynchophorus ferrugineus; conditions: larvae treated 24 h, midgut preparation
Method: as §3

[6] = target: metalloprotease of R. ferrugineus midgut; assay: Metalloproteinase specific activity, CEGR substrate (in vitro); conditions: 4th instar midgut homogenate
Method: (§7) The ten midgut larvae from the fourth stage were neatly eliminated, dissected, and repeatedly washed with 0.9% NaCl solution. A 500 µL protease test solution, including 50 mM HEPS, 0.1% Triton X-100, and 5 mM DTT (pH 8.0), was utilized to homogenize the midgut instar. The homogenates were then centrifuged employing a Sigma 3k30 (cooling centrifuge) at 5000 rpm for 30 min to evaluate the supernatant’s enzyme activity and protein content. Before introducing CEGR (125 µL, 2% (w/v)), each experiment’s supernatant (10 µL) was incubated in an assay buffer (60 µL) at 37 °C for 20 min (pH 8). During a 10 min incubation period without a substrate, 10 µL enzyme samples were tested (20 min. for EDTA, EGTA, 1.10, Phenanthroline). After 180 min at 37 °C, 300 µL of cold TCA, 10% (v/v), was used to terminate the reaction. For the next 20 min, the mixture was spun (5000 rpm, Sigma 3K30). The absorbance was measured at 450 nm after mixing the supernatant with hydroxide solution (10 µL, 10 N) using an ELISA reader. An enzyme-free assay combination was utilized as a blank, and particular activity was evaluated utilizing the OD493 mg^−1 protein min^−1 and an enzyme-free blank specimen.
as §5

[7] = system: trypsin proteinase of R. ferrugineus midgut; assay: Trypsin activity in midgut of treated larvae (in vivo); conditions: larvae treated 24 h, midgut preparation
Method: as §4, §5

[8] = target: elastase of R. ferrugineus midgut; assay: Serine proteinase specific activity, elastase (in vitro); format: biochemical, Rhynchophorus ferrugineus; conditions: 4th instar midgut homogenate
[9] = system: metalloprotease of R. ferrugineus midgut; assay: Metalloprotease activity in midgut of treated larvae (in vivo); conditions: larvae treated 24 h, midgut preparation
Method: as §7, §5

[10] = target: total proteases of R. ferrugineus midgut; assay: Total proteolytic enzyme activity of 4th instar midgut homogenate, azocasein (in vitro)
Method: as §6, §5

[11] = system: R. ferrugineus 4th larvae; assay: Topical application (contact insecticide) to fourth instar larvae; format: in vivo, Rhynchophorus ferrugineus
Method: as §1, §2

IC50 trypsin proteinase (in vitro) [1]: 168.4 µg/mL (≈ 1090 µM)
IC50 cysteine protease (in vitro) [4]: 287.3 µg/mL (≈ 1860 µM)
IC50 metalloprotease (in vitro) [6]: 543.5 µg/mL (≈ 3520 µM)
IC50 elastase (in vitro) [8]: 112.6 µg/mL (≈ 730 µM)
IC50 total proteases (in vitro) [10]: 281.7 µg/mL (≈ 1830 µM)
Compound: C=C(C)C1CCC(C)(O)CC1 (stereo not drawn) [β-terpineol]
IC50 total proteases (in vivo) [2]: 379.5 µg/mL (≈ 2460 µM)
IC50 elastase (in vivo) [3]: 239.4 µg/mL (≈ 1550 µM)
LC50 (R. ferrugineus adults): 3920 µg/mL (≈ 25400 µM)
IC50 cysteine protease (in vivo) [5]: 427.4 µg/mL (≈ 2770 µM)
IC50 trypsin proteinase (in vivo) [7]: 237.1 µg/mL (≈ 1540 µM)
IC50 metalloprotease (in vivo) [9]: 1175.2 µg/mL (≈ 7620 µM)
LD50 (µg/Larvae) 95% CF ([11]; 4th larvae, topical, 95% confidence limits in brackets): 42.6 (39.7–44.3) µg/Larvae
LD50 ([11]; larvae, topical application): 42.6 µg/larva
